Measured values as given in patent US4880812A, “Pyrimidine compounds” (Burroughs Wellcome Co., priority 1986, dated 1989).
≈ marks a conversion by molar mass, not a printed value. Like-named read-outs stand apart in the source and are kept apart here.

Experiments:
yellow fever virus = conditions: in words
mouse L cells [1] = assay: Reversal of Cytotoxic Activity on mouse L cells
L cells = assay: Cell Culture Cytotoxicity Test, L cells; type: cell-based; conditions: Mus musculus; 50 % of control; 70-76 hours of incubation; read-out: Concentration giving 50 % of Control, L-Cells
Experimental: (§1) B. Cell Culture Cytotoxicity Test Data
(§2) The two routine indicator cell lines used are (1.) D98, a twice-cloned derivative of Detroit 98s from American Type Culture Collection (ATCC) strain CCL 18.1, from human sternal bone marrow and (2.) L, a cloned derivative from NCTC 929 (ATCC CCL1,) a C3 H/An from mouse connective tissue. Inoculation densities for L and D98 cells are 1.0 and 1.5×10^5 cells, per cm^2, respectively. Control cells are grown in Eagle's MEM (Earle's salts, 10% horse serum, 100 units/ml potassium penicillin G and 100 μg/ml streptomycin) and should show at least two doublings during the test period. Test plates are seeded with similar quantities of cells and are grown in the same medium with test compounds added. Total "cell counts" are made with an electronic cell counter after 70-76 hours of incubation with one medium change at 20-26 hours. Dose response curves are prepared by plotting percent of control vs. concentration of compound.
(§3) The compounds of the invention included in this test and the results are as follows.

Spiroplasma citri = assay: Activity Against Spiroplasma citri, Sensitivity Test; type: cell-based; conditions: for MIC: Spiroplasma citri, 48 h, 32° C., no color change or two day delay in color change; for activity against the mycoplasma, Spiroplasma citri: in words
Experimental: D. Data for Activity Against Spiroplasma citri, Sensitivity Test
Frozen broth cultures are diluted to a predetermined titre of 100 color changing units for the test. Organisms are grown in Difco PPLO broth base with added serum, glucose, phenol red, ampicillin, thallium acetate and yeast extract. Incubation is at 32° C. Incubation with varying levels of the test compound in the above medium are performed in well plates and an amount of Spiroplasma citri cells is added that will produce a color change by a fixed time of growth. The lowest concentration of compound that fails to produce a color change or gives a two day delay in color change indicates minimum inhibitory concentration.
The compounds of the invention included in this test and the results are as follows: […]

D98 cells = assay: Cell Culture Cytotoxicity Test, D98 cells; type: cell-based; conditions: Homo sapiens; 50 % of control; 70-76 hours of incubation; read-out: Concentration giving 50 % of Control, D-98 Cells
Experimental: as §1, §2, §3

mouse L cells [2] = tested on: mouse L cells
[3] = colour change on extended exposure to light; type: physicochemical; conditions: white powder
Streptococcus faecium = assay: activity against Streptococcus faecium; type: cell-based; conditions: in words
[4] = tested on: lymphocytic leukemia P388/0; assay: Lymphocytic Leukemia P388/0 Test (survival, mice); type: in vivo, CD2-F1 mice
Excerpt: A. Anti-neoplastic Activity Data for Lymohocytic Leukemia P388/0 Test
The tests employed for the evaluation of anti-neoplastic activity of the compounds of the present invention are essentially those used in the Tumor Panel of the Developmental Therapeutics Program, Division of Cancer Treatment, National Cancer Institute, A. Goldin, et al., Methods in Cancer Research, Vol. XVI, p. 165, Academic Press (1979). Some modifications, in dose level and schedule have been made to increase the testing efficiency.
CD2-F1 -mice, of the same sex, weighing within a 3 g range surrounding 20 g, are used for this test. Control and test animals are injected intraperitoneally with a suspension of […] viable P388/0 tumor cells on day 0. In each test, several dose levels which bracket the LD20 of the compound are evaluated; each dose level group contains six animals. The test compound is prepared either in physiologic saline containing 0.05% Tween 80 or distilled water containing 5% dextrose and is administered intraperitoneally on the indicated schedule relative to tumor implant. Doses are on a mg/kg basis according to individual animals' body weights. The day of death for each animal is recorded, the median identified for each group and the percent increase in life span (% ILS) is calculated from the ratio of survival time of treatment to control groups. The criterion for activity is % ILS greater than or equal to 20%.
The compound of the invention included in this test was the compound of Example 1, namely N-[4-[3-(2,4-diamino-1,6-dihydro-6-oxo-5-pyrimidinyl)propylamino]benzoyl]- L-glutamic acid and the results are as follows.

Lactobacillus casei = assay: activity against Lactobacillus casei; type: cell-based; conditions: in words

Q: With `Nc1nc(N)c(CCCN(C=O)c2ccc(C(=O)N[C@@H](CCC(=O)O)C(=O)O)cc2)c(=O)[nH]1` [Example 3, N-[4-[3-(2,4-Diamino-1,6-dihydro-6-oxo-5-pyrimidinyl)-N-formylpropylamino]benzoyl]-L-glutamic acid] as the molecule, how does the “activity against yellow fever virus” value (yellow fever virus) read?
A: The value was “some activity”.

Q: And the activity at 0.04 µM (mouse L cells [1]; Mus musculus, read-out: % of Control, compound alone, 4 × 10^-8 M)?
A: The activity at 0.04 µM was 37%.

Q: What about the IC50 (L cells) of the same molecule?
A: The IC50 was 18 nM.

Q: What about the MIC (Spiroplasma citri) of the same molecule?
A: Its MIC is 0.1 µM (≈ 0.046 µg/mL).

Q: What about the “activity against the mycoplasma, Spiroplasma citri” value (Spiroplasma citri) of the same molecule?
A: Its value is “activity”.

Q: And the IC50 (D98 cells)?
A: Its IC50 is 210 nM.

Q: What does the source list for `Nc1nc2c(c(=O)[nH]1)N(C=O)C(CNc1ccc(C(=O)N[C@@H](CCC(=O)O)C(=O)O)cc1)CN2` (stereo partly shown) [calcium leucovorin]?
A: reversal of the cytotoxicity of the compound of Example 1 (mouse L cells [2]): able to reverse the cytotoxicity; reversal of the cytotoxicity of the compound of Example 3 (mouse L cells [2]): able to reverse the cytotoxicity

Q: With `CN(CCc1c(N)nc(N)[nH]c1=O)c1ccc(C(=O)N[C@@H](CCC(=O)O)C(=O)O)cc1` [Example 5, N-[4-[2-(2,4-diamino-1,6-dihydro-6-oxo-5-pyrimidinyl)ethyl-N-methylamino]benzoyl]-L-glutamic acid] as the molecule, how does the IC50 (L cells) read?
A: Its IC50 is 750 nM.

Q: And the IC50 (D98 cells)?
A: The IC50 was 7000 nM.

Q: And the “colour change upon extended exposure to light” value [3]?
A: Its value is “became tan upon extended exposure to light”.

Q: Which IC50 (L cells) does the source give for `CN(CCCc1c(N)nc(N)[nH]c1=O)c1ccc(C(=O)N[C@@H](CCC(=O)O)C(=O)O)cc1` [Example 2, N-[4-[3-(2,4-diamino-1,6-dihydro-6-dihydro-6-oxo-5-pyrimidinyl)-N-methylpropylamino]benzoyl]-L-glutamic acid] here?
A: The IC50 was 400 nM.

Q: And the MIC (Spiroplasma citri)?
A: Its MIC is 0.1 µM (≈ 0.0446 µg/mL).

Q: What about the “activity against the mycoplasma, Spiroplasma citri” value (Spiroplasma citri) of the same molecule?
A: Its value is “activity”.

Q: What about the IC50 (D98 cells) of the same molecule?
A: The IC50 was 3000 nM.

Q: Which “reversal of the cytotoxicity of the compound of Example 1” value (mouse L cells [2]) does the source give for `O=c1[nH]cnc2nc[nH]c12` [hypoxanthine] here?
A: The value was “able to reverse the cytotoxicity”.

Q: And the “reversal of the cytotoxicity of the compound of Example 3” value (mouse L cells [2])?
A: The value was “able to reverse the cytotoxicity”.

Q: With `NC(=O)c1ncn([C@@H]2O[C@H](COP(=O)(O)O)[C@@H](O)[C@H]2O)c1N` [AICAR, 5-aminoimidazole-4-carboxamide ribonucleotide, reference compound] as the molecule, how does the “reversal of the cytotoxicity of the compound of Example 3” value (mouse L cells [1]; rescue agent against Example 3) read?
A: Its value is “able to reverse the cytotoxicity”.

Q: For `Nc1nc(N)c(CCNc2ccc(C(=O)N[C@@H](CCC(=O)O)C(=O)O)cc2)c(=O)[nH]1` [Example 4, N-[4-[2-(2,4-diamino-1,6-dihydro-6-oxo-5-pyrimidinyl)ethylamino]benzoyl]-L-glutamic acid], which IC50 (L cells) is on record?
A: The IC50 was 400 nM.

Q: What about the IC50 (D98 cells) of the same molecule?
A: The IC50 was 700 nM.

Q: What does the source list for `Nc1nc(N)c(CCCNc2ccc(C(=O)N[C@@H](CCC(=O)O)C(=O)O)cc2)c(=O)[nH]1` [Example 1, N-[4-[3-(2,4-diamino-1,6-dihydro-6-oxo-5-pyrimidinyl)propylamino]benzoyl]-L-glutamic acid]?
A: activity against yellow fever virus (yellow fever virus): some activity; activity at 0.2 µM (mouse L cells [1]; Mus musculus, read-out: % of Control, compound alone, 2 × 10^-7 M (experiment with Ca leucovorin)): 36%; activity at 0.2 µM (mouse L cells [1]; Mus musculus, read-out: % of Control, compound alone, 2 × 10^-7 M (experiment with hypoxanthine)): 40%; IC50 (L cells): 88 nM; activity against Streptococcus faecium (Streptococcus faecium): activity; MIC (Spiroplasma citri): 0.01 µM (≈ 0.00432 µg/mL); activity against the mycoplasma, Spiroplasma citri (Spiroplasma citri): activity; % Increased Life Span ([4]; 2.5 mg/kg i.p., twice a day, on days 1, 2 and 3): +20%; % Increased Life Span ([4]; 5 mg/kg i.p., every 4 hours for 3 doses on days 1-4): +22%; % Increased Life Span ([4]; 5 mg/kg i.p., every hour for 8 doses on days 1 and 3): +60%; % Increased Life Span ([4]; 5 mg/kg i.p., twice a day, on days 1, 2, and 3): +35%; % Increased Life Span ([4]; 7.5 mg/kg i.p., twice a day, on days 1, 2 and 3): +40%; % Increased Life Span ([4]; 10 mg/kg i.p., every 4 hours for 3 doses on days 1-4): +80%; % Increased Life Span ([4]; 20 mg/kg i.p., every hour for 8 doses on days 1 and 3): +60%; % Increased Life Span ([4]; 182 mg/kg i.p., day 1, 5, 9): +20%; IC50 (D98 cells): 110 nM; activity against Lactobacillus casei (Lactobacillus casei): activity
